# According to patent US20200121716A1, “Method for Inhibiting Both Glycolysis and Glutamine Metabolism in Cells and Use Thereof” (priority 2017, published 2020):
# Tested on: anaerobia
# Assay: spontaneous anaerobic fermentation of flour paste sealed with rapeseed oil
# Assay type: cell-based
row,SMILES,aqueous solution above the settled flour
1,O=CO [formic acid],clear and transparent
2,O=C([O-])C(=O)[O-].[Na+].[Na+] [sodium oxalate],clear and transparent
